Assay results: ChEMBL document CHEMBL3286226, “Discovery of thienopyrimidine-based FLT3 inhibitors from the structural modification of known IKKβ inhibitors” (Bioorg Med Chem Lett, 2014); call rule not given here
Blank lines part the entries; values can stand above or below the compound they belong to.

Legend:
RAW264.7 [1] = assay: cells; settings: Mus musculus
Description: (§1) Antiinflammatory activity against mouse RAW264.7 cells assessed as reduction of LPS-induced TNF-alpha production

RAW264.7 [2] = assay: cells; settings: Mus musculus; remark: listed apart in the source
Description: Antiinflammatory activity against mouse RAW264.7 cells assessed as reduction of LPS-induced NO production

RAW264.7 [3] = tested on: RAW264.7
Description: as §1

[4] = biological target: Mitogen-activated protein kinase 13 (Homo sapiens) (UniProt O15264); assay: Inhibition of human SAPK4 assessed as residual activity at 10 uM relative to control
[5] = biological target: Ribosomal protein S6 kinase alpha-5 (Homo sapiens) (UniProt O75582); assay: Inhibition of human MSK1 assessed as residual activity at 10 uM relative to control
[6] = biological target: T1, Inhibitor of nuclear factor kappa-B kinase subunit beta (Homo sapiens, UniProt O14920)
T1 sequence (O14920 whole entry): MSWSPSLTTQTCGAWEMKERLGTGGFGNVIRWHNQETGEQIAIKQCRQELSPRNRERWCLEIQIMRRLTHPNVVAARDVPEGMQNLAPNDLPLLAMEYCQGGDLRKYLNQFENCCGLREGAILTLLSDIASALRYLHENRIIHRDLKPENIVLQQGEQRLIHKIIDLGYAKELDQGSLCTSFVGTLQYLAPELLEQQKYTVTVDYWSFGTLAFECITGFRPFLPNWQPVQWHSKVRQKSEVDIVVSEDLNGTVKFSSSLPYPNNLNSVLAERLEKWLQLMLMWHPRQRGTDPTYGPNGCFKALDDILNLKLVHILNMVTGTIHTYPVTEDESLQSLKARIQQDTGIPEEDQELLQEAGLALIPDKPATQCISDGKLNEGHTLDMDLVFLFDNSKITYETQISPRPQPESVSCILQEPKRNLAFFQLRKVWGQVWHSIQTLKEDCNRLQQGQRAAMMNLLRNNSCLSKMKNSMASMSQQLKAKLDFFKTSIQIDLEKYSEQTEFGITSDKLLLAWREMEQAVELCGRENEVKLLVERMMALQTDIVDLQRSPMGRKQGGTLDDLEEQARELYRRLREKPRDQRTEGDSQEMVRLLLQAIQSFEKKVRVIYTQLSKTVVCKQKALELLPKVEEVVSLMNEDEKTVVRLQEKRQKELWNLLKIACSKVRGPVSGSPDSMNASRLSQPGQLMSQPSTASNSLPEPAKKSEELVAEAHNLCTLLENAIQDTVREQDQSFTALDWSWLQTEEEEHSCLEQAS
Description: Inhibition of IKKbeta kinase (unknown origin) by Lance ULight system

[7] = biological target: Dual specificity mitogen-activated protein kinase kinase 7 (Homo sapiens) (UniProt O14733); assay: Inhibition of human MKK7beta assessed as residual activity at 10 uM relative to control
[8] = biological target: Mitogen-activated protein kinase 8 (Homo sapiens) (UniProt P45983); assay: Inhibition of human JNK1alpha1 assessed as residual activity at 10 uM relative to control
[9] = biological target: Non-receptor tyrosine-protein kinase TYK2 (Homo sapiens) (UniProt P29597); assay: Inhibition of human TYK2 assessed as residual activity at 10 uM relative to control
[10] = biological target: Dual specificity mitogen-activated protein kinase kinase 6 (Homo sapiens) (UniProt P52564); assay: Inhibition of human MKK6 assessed as residual activity at 10 uM relative to control
[11] = biological target: Receptor-type tyrosine-protein kinase FLT3 (Homo sapiens) (UniProt P36888); assay: Inhibition of human Flt3 assessed as residual activity at 10 uM relative to control
[12] = biological target: MAP kinase-activated protein kinase 2 (Homo sapiens) (UniProt P49137); assay: Inhibition of human MAPKAP-K2 assessed as residual activity at 10 uM relative to control
[13] = biological target: T1, Inhibitor of nuclear factor kappa-B kinase subunit beta; remark: listed apart in the source
Description: (§2) Inhibition of IKKbeta kinase (unknown origin) by Radioisotope system

[14] = biological target: Rho-associated protein kinase 2 (Homo sapiens) (UniProt O75116); assay: Inhibition of human ROCK-2 assessed as residual activity at 10 uM relative to control
[15] = biological target: Dual specificity mitogen-activated protein kinase kinase 4 (Mus musculus) (UniProt P47809); assay: Inhibition of mouse MKK4 assessed as residual activity at 10 uM relative to control
[16] = biological target: Mitogen-activated protein kinase 12 (Homo sapiens) (UniProt P53778); assay: Inhibition of human SAPK3 assessed as residual activity at 10 uM relative to control
[17] = biological target: Tyrosine-protein kinase Lyn (Homo sapiens) (UniProt P07948); assay: Inhibition of human Lyn assessed as residual activity at 10 uM relative to control
[18] = biological target: Inhibitor of nuclear factor kappa-B kinase subunit alpha (Homo sapiens) (UniProt O15111); assay: Inhibition of human IKKalpha assessed as residual activity at 10 uM relative to control
[19] = biological target: Mitogen-activated protein kinase 14 (Homo sapiens) (UniProt Q16539); assay: Inhibition of human SAPK2alpha assessed as residual activity at 10 uM relative to control
[20] = biological target: Mitogen-activated protein kinase 11 (Homo sapiens) (UniProt Q15759); assay: Inhibition of human SAPK2beta assessed as residual activity at 10 uM relative to control
[21] = biological target: Mitogen-activated protein kinase 9 (Homo sapiens) (UniProt P45984); assay: Inhibition of human JNK2alpha2 assessed as residual activity at 10 uM relative to control
[22] = biological target: Tyrosine-protein kinase BTK (Homo sapiens) (UniProt Q06187); assay: Inhibition of human BTK assessed as residual activity at 10 uM relative to control
Homo sapiens = species on record: Homo sapiens; assay: Inhibition of human PKA assessed as residual activity at 10 uM relative to control
[23] = biological target: T2, Receptor-type tyrosine-protein kinase FLT3 (Homo sapiens, UniProt P36888)
T2 sequence (P36888 whole entry): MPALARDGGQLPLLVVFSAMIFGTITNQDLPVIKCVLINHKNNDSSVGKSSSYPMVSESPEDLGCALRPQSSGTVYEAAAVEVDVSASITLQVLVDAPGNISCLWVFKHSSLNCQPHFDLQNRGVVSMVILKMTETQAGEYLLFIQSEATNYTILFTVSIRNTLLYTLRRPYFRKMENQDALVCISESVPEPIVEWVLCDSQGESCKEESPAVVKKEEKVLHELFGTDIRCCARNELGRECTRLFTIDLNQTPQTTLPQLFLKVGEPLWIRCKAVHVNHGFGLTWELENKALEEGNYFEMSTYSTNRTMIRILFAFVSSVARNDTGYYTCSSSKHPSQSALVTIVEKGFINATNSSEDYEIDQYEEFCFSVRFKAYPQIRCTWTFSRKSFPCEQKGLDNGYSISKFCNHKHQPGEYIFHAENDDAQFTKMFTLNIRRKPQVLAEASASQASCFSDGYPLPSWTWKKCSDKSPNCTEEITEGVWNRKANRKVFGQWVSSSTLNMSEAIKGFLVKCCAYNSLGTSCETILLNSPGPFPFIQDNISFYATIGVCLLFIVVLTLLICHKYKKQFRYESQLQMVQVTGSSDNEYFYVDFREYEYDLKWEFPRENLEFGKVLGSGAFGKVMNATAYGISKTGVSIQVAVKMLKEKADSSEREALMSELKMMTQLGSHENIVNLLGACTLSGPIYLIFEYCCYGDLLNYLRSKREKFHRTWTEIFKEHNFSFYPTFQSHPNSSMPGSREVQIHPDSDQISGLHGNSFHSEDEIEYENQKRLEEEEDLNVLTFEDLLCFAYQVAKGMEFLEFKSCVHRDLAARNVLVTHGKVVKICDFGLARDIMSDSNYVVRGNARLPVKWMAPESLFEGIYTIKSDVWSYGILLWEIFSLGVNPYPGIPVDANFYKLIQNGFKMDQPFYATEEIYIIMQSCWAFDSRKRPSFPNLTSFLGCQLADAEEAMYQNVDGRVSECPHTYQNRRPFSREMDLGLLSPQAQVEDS
Description: Inhibition of FLT3 kinase (unknown origin)

[24] = biological target: Tyrosine-protein kinase JAK3 (Homo sapiens) (UniProt P52333); assay: Inhibition of human JAK3 assessed as residual activity at 10 uM relative to control
[25] = biological target: Inhibitor of nuclear factor kappa-B kinase subunit beta (Homo sapiens) (UniProt O14920); assay: Inhibition of human IKKbeta assessed as residual activity at 1 uM relative to control
[26] = biological target: Tyrosine-protein kinase Lck (Homo sapiens) (UniProt P06239); assay: Inhibition of human Lck assessed as residual activity at 10 uM relative to control
[27] = biological target: Tyrosine-protein kinase JAK1 (Homo sapiens) (UniProt P23458); assay: Inhibition of human JAK1 assessed as residual activity at 10 uM relative to control
[28] = biological target: T1, Inhibitor of nuclear factor kappa-B kinase subunit beta; remark: listed apart in the source
Description: as §2

Chain of Non-receptor tyrosine-protein kinase TYK2 (Homo sapiens) (P29597 whole entry): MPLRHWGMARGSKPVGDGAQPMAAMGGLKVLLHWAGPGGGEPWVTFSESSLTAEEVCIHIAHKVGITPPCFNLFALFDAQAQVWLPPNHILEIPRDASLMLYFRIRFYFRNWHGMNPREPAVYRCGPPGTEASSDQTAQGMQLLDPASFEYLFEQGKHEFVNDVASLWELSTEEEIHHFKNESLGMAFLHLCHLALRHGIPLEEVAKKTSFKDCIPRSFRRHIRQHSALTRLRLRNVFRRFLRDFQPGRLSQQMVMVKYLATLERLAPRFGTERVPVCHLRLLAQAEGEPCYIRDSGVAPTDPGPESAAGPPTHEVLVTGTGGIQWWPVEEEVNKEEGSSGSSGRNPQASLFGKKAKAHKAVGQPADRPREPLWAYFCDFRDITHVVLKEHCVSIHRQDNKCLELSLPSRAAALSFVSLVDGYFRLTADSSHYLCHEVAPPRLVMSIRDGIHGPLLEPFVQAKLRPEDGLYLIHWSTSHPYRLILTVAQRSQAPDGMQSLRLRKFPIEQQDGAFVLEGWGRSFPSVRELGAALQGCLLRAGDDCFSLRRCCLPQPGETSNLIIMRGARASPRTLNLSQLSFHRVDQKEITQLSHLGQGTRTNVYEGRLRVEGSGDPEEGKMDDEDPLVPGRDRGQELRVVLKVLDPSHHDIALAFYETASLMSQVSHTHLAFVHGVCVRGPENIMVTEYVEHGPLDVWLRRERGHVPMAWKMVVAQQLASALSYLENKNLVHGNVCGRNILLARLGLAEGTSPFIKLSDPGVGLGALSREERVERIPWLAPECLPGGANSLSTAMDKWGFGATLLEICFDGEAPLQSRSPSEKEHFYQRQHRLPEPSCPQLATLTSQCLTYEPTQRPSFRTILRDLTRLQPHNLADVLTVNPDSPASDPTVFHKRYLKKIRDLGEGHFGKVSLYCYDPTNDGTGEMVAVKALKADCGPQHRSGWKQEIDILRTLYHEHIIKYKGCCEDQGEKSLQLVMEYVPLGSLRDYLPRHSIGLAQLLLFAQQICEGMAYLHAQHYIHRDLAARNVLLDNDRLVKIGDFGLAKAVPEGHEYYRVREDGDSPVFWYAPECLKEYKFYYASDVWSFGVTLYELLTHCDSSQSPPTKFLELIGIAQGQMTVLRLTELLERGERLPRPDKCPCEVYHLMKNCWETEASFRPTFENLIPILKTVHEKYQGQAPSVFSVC
Chain of Inhibitor of nuclear factor kappa-B kinase subunit alpha (Homo sapiens) (O15111 whole entry): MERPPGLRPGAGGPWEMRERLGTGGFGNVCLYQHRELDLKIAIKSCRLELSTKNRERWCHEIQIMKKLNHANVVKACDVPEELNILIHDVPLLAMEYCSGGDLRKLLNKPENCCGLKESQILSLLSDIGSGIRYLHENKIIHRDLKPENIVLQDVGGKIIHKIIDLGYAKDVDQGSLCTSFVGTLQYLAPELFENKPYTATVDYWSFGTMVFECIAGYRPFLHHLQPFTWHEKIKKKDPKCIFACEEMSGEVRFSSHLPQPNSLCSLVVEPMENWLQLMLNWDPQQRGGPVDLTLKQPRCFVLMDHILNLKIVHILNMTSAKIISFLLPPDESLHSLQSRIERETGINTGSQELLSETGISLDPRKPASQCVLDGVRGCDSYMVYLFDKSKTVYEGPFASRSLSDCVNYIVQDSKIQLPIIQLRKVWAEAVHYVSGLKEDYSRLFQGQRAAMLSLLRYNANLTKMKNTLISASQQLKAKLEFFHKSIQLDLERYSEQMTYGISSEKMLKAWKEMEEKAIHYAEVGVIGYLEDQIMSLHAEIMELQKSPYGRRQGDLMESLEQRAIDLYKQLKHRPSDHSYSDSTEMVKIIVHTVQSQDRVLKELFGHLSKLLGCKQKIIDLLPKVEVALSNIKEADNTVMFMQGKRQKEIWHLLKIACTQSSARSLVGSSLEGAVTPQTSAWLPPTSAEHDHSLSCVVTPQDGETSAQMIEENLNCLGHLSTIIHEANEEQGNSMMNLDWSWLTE
Chain of Mitogen-activated protein kinase 8 (Homo sapiens) (P45983 whole entry): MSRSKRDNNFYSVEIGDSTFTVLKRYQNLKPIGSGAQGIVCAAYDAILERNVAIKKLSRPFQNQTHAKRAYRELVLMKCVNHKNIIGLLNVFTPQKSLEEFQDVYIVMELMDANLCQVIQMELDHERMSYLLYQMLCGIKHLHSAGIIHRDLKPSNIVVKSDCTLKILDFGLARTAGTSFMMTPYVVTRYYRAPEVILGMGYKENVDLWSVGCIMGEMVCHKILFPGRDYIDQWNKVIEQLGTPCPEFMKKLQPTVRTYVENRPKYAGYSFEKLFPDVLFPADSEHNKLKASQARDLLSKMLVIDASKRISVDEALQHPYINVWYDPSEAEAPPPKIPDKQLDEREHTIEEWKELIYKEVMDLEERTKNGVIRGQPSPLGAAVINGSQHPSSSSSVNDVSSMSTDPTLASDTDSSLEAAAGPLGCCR
Chain of Mitogen-activated protein kinase 9 (Homo sapiens) (P45984 whole entry, looked up): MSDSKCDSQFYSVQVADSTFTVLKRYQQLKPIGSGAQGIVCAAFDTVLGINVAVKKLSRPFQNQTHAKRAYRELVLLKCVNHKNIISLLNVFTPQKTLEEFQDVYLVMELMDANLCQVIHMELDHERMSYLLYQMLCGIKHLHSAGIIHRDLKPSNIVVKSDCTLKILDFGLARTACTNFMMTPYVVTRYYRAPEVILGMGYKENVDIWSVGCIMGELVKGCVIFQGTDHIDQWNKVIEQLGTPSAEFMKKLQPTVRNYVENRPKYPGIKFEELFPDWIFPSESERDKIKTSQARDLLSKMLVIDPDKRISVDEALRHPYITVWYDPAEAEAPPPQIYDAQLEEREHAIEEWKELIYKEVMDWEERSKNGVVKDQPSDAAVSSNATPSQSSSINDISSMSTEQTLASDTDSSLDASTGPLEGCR
Chain of Mitogen-activated protein kinase 13 (Homo sapiens) (O15264 whole entry): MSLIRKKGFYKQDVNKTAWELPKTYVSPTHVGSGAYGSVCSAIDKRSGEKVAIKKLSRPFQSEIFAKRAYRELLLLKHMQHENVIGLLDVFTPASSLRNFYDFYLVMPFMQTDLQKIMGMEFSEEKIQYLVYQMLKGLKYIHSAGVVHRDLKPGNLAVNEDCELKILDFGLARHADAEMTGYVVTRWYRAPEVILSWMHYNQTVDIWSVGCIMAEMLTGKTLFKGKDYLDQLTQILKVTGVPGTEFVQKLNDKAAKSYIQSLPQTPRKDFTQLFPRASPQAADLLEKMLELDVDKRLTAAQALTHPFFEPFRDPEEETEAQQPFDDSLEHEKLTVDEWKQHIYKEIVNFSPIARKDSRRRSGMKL
Chain of Tyrosine-protein kinase JAK3 (Homo sapiens) (P52333 whole entry): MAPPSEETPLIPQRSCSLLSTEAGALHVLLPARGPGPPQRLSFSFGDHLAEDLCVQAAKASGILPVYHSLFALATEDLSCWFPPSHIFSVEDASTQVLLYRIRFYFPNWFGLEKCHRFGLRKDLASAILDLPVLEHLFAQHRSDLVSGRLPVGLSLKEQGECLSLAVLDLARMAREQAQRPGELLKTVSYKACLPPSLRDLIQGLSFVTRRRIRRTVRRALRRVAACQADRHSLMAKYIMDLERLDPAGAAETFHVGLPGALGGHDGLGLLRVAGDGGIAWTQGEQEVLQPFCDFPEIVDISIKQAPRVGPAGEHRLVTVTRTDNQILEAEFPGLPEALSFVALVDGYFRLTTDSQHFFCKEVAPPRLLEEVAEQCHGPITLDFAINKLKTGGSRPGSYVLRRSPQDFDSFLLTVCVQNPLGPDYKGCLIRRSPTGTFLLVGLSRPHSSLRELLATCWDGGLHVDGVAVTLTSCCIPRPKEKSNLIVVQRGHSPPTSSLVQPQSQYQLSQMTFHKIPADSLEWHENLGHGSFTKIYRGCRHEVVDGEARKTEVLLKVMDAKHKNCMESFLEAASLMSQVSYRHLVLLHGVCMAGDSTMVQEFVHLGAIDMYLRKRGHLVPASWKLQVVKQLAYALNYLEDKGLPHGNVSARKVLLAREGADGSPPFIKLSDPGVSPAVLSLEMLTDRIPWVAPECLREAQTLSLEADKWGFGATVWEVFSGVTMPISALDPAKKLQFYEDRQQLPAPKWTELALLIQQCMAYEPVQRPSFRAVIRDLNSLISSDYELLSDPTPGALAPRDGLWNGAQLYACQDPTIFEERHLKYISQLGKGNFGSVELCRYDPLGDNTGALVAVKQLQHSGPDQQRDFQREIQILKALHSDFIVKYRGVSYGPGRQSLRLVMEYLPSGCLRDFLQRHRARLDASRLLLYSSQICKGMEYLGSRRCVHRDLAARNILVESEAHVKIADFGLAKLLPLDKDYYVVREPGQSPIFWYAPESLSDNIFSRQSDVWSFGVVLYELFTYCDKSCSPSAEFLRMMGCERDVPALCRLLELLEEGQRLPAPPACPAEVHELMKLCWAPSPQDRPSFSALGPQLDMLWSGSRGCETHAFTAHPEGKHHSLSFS
Chain of Dual specificity mitogen-activated protein kinase kinase 6 (Homo sapiens) (P52564 whole entry): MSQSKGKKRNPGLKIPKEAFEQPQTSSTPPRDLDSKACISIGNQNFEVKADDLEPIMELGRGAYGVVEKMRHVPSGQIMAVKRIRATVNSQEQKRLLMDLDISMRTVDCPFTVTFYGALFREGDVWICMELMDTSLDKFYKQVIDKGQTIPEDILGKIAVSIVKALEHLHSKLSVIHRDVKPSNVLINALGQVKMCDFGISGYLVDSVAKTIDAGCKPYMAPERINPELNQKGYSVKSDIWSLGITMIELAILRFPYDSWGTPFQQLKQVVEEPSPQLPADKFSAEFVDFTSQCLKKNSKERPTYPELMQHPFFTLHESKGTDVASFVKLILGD
Chain of Dual specificity mitogen-activated protein kinase kinase 7 (Homo sapiens) (O14733 whole entry): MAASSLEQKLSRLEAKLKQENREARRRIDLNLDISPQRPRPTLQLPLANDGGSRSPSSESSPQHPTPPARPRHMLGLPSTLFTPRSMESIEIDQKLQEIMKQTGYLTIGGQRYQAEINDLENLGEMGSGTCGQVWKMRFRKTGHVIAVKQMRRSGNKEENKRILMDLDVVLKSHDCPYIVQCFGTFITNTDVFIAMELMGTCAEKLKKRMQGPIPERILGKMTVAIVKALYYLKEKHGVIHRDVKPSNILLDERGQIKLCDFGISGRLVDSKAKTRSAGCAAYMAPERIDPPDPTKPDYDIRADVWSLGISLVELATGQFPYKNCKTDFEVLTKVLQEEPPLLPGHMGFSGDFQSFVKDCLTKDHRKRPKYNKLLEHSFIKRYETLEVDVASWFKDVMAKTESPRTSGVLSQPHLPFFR

Compound: O=C1C=CC(=O)N1Nc1ncnc2scc(-c3cccs3)c12
IC50 (RAW264.7 [3]): Not Active | IC50 (RAW264.7 [2]): > 10 µM

Compound: O=C1c2ccccc2C(=O)N1Nc1ncnc2scc(-c3cccs3)c12
IC50 (RAW264.7 [3]): Not Active | IC50 (RAW264.7 [2]): > 10 µM

Compound: CC1=CC(=O)N(Nc2nc(-c3cccs3)nc3sccc23)C1=O
IC50 [6]: > 50 µM | IC50 (RAW264.7 [1]): 8.95 µM | IC50 [13]: Not Active | IC50 (RAW264.7 [2]): 6.98 µM

Compound: CC1=C(C)C(=O)N(Nc2ncnc3scc(-c4cccs4)c23)C1=O
IC50 (RAW264.7 [3]): Not Active | IC50 (RAW264.7 [2]): > 10 µM

Compound: CCOC(=O)Cc1csc2nc(-c3cccs3)nc(NN3C(=O)C=C(C)C3=O)c12
IC50 [6]: > 50 µM | IC50 (RAW264.7 [1]): 5.23 µM | IC50 [13]: Not Active | IC50 [23]: 0.673 µM | IC50 (RAW264.7 [2]): 5.07 µM

Next, values leading:

IC50 (RAW264.7 [1]): 3.96 µM | IC50 (RAW264.7 [2]): 5.25 µM
Compound: CC1=CC(=O)N(Nc2nc(-c3ccco3)nc3scc(-c4cccs4)c23)C1=O

Activity [4]: 90% | Activity [5]: 96% | IC50 [6]: > 50 µM | Activity [7]: 122% | Activity [8]: 87% | Activity [9]: 86% | Activity [10]: 99% | Activity [11]: 8% | IC50 (RAW264.7 [1]): 1.29 µM | Activity [12]: 102% | IC50 [13]: Not Active | Activity [14]: 99% | Activity [15]: 113% | Activity [16]: 109% | Activity [17]: 92% | Activity [18]: 119% | Activity [19]: 92% | Activity [20]: 98% | Activity [21]: 94% | Activity [22]: 76% | Activity (Homo sapiens): 125% | IC50 [23]: 0.208 µM | Activity [24]: 121% | Activity [25]: 116% | IC50 (RAW264.7 [2]): 0.75 µM | Activity [26]: 86% | Activity [27]: 103%
Compound: CC1=CC(=O)N(Nc2nc(-c3cccs3)nc3scc(-c4ccccc4)c23)C1=O

IC50 (RAW264.7 [1]): 1.13 µM | IC50 (RAW264.7 [2]): 3.13 µM
Compound: CC1=CC(=O)N(Nc2nc(-c3ccccc3)nc3scc(-c4cccs4)c23)C1=O

IC50 (RAW264.7 [1]): 2.38 µM | IC50 [28]: > 50 µM | IC50 [23]: 0.54 µM | IC50 (RAW264.7 [2]): 3.26 µM
Compound: CC1=CC(=O)N(Nc2nc(-c3cccs3)nc3scc(-c4cccc(OCCN5CCOCC5)c4)c23)C1=O

IC50 (RAW264.7 [1]): 0.71 µM | IC50 (RAW264.7 [2]): 2.19 µM
Compound: CC1=CC(=O)N(Nc2nc(-c3cccs3)nc3scc(-c4cccs4)c23)C1=O

IC50 (RAW264.7 [1]): 1.24 µM | IC50 (RAW264.7 [2]): 3.47 µM
Compound: COc1cccc(-c2nc(NN3C(=O)C=C(C)C3=O)c3c(-c4cccs4)csc3n2)c1
